These results are taken from ChEMBL document CHEMBL3877335, “Bifunctional Inhibitors as a New Tool To Reduce Cancer Cell Invasion by Impairing MMP-9 Homodimerization” (ACS Med Chem Lett, 2017).

Usually IC50 stands for the concentration needed to halve the response being measured.

Activity calls are given as the source filed them. The rule behind the calls is not given here.

A short description of data set [1]: Antiproliferative activity against human U87MG cells at 5 to 25 nM measured after 24 hrs by MTS assay. Format: cell-based. The note with it: u-87mg atcc, 0.025 µM. On the technique in general: Tetrazolium assays rely on reduction of a dye to a coloured formazan, in cell work by metabolically active cells.
Data set [2] concerns the target Matrix metalloproteinase-14 (Homo sapiens, UniProt P50281). Kind of data set: Inhibition of recombinant human MMP-14 catalytic domain pretreated for 4 hrs followed by Mca-Lys-Pro-Leu-Gly-Leu-Dap(Dnp)-Ala-Arg-NH2 fluorogenic substrate addition measured every 15 secs for 20 mins by fluorimetric assay.
The target in data set [3] is 72 kDa type IV collagenase (Homo sapiens, UniProt P08253). Kind of data set: Inhibition of p-aminophenylmercuric acetate activated recombinant human MMP-2 expressed in CHO cells pretreated for 4 hrs followed by Mca-Lys-Pro-Leu-Gly-Leu-Dap(Dnp)-Ala-Arg-NH2 fluorogenic substrate addition measured every 15 secs for 20 mins by fluorimetric assay. It is filed as cell-based.
Chain of 72 kDa type IV collagenase (P08253 whole entry): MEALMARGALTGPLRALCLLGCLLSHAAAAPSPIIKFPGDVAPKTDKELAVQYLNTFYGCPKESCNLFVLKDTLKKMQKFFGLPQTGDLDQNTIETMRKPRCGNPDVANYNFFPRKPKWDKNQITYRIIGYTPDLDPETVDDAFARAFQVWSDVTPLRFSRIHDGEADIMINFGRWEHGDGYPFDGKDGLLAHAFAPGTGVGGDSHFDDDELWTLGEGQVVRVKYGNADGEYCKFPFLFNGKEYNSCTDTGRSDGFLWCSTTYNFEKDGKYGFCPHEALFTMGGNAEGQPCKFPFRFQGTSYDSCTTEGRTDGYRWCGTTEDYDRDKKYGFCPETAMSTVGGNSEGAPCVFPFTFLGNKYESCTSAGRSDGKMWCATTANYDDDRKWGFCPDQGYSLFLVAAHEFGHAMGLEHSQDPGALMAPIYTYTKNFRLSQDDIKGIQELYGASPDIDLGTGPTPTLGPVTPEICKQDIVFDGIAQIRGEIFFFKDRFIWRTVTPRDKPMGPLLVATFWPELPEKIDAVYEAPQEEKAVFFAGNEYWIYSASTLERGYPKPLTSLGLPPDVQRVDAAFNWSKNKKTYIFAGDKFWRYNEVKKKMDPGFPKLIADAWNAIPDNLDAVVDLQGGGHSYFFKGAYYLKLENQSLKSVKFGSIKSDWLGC

Data set [4] concerns the target T1, Matrix metalloproteinase-9 (Homo sapiens, UniProt P14780). Description: Inhibition of p-aminophenylmercuric acetate activated recombinant human MMP-9 expressed in CHO cells pretreated for 4 hrs followed by Mca-Lys-Pro-Leu-Gly-Leu-Dap(Dnp)-Ala-Arg-NH2 fluorogenic substrate addition measured every 15 secs for 20 mins by fluorimetric assay. It is filed as cell-based.

The nature of data set [5]: Antiproliferative activity against human T98G cells at 5 to 25 nM measured after 24 hrs by MTS assay. It is filed as cell-based. The note with it: 0.025 µM.
For data set [6], the target named is T1, Matrix metalloproteinase-9. Description: Inhibition of MMP-9 homodimerization in human U343MG cells assessed as reduction in cell invasion at 25 nM measured after 24 hrs by p-formaldehyde/crystal violet staining based matrigel basement membrane transwell assay.
The species named for the next data set is Homo sapiens. Description: Selectivity ratio of IC50 for p-aminophenylmercuric acetate activated human rheumatoid synovial fibroblast MMP-1 to IC50 for p-aminophenylmercuric acetate activated recombinant human MMP-9.
Data set [7] has as its target T1, Matrix metalloproteinase-9. Kind of data set: Inhibition of MMP-9 homodimerization in human T98G cells assessed as reduction in cell invasion at 5 to 25 nM measured after 24 hrs by p-formaldehyde/crystal violet staining based matrigel basement membrane transwell assay.
A short description of data set [8]: Antiproliferative activity against human U343MG cells at 5 to 25 nM measured after 24 hrs by MTS assay. Format: cell-based. The following applies: 0.025 µM.
Another data set addresses T2, Interstitial collagenase (Homo sapiens, UniProt P03956).
T2 sequence (P03956 whole entry): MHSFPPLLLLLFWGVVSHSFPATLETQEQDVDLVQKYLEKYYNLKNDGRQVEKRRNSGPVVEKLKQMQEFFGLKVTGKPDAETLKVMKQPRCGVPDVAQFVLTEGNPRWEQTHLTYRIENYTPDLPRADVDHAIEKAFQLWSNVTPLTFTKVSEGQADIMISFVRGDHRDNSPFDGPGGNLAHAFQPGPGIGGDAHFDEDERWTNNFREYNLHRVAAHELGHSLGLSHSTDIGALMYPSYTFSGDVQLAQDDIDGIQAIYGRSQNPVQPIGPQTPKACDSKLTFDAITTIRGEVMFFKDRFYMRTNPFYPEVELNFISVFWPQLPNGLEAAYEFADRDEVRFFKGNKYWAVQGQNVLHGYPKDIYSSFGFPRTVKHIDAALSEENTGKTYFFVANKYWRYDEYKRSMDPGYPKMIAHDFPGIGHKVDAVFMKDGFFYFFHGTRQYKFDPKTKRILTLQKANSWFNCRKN
Kind of data set: Inhibition of p-aminophenylmercuric acetate activated human rheumatoid synovial fibroblast MMP-1 pretreated for 4 hrs followed by Mca-Lys-Pro-Leu-Gly-Leu-Dap(Dnp)-Ala-Arg-NH2 fluorogenic substrate addition measured every 15 secs for 20 mins by fluorimetric assay.

Data set [9] concerns the target T1, Matrix metalloproteinase-9. Description: Inhibition of MMP-9 homodimerization in human U87MG cells assessed as reduction in cell invasion at 5 to 25 nM measured after 24 hrs by p-formaldehyde/crystal violet staining based matrigel basement membrane transwell assay. The note with it: U-87MG ATCC.
Data set [10] deals with T1, Matrix metalloproteinase-9. The following applies: T98G, 25 nM.
Description: Inhibition of MMP-9 homodimerization in human T98G cells assessed as reduction in cell invasion at 25 nM measured after 24 hrs by p-formaldehyde/crystal violet staining based matrigel basement membrane transwell assay
Data set [11] has as its target T1, Matrix metalloproteinase-9. The following applies: U-87MG ATCC, 25 nM.
Description: Inhibition of MMP-9 homodimerization in human U87MG cells assessed as reduction in cell invasion at 25 nM measured after 24 hrs by p-formaldehyde/crystal violet staining based matrigel basement membrane transwell assay

T1 sequence (P14780 whole entry): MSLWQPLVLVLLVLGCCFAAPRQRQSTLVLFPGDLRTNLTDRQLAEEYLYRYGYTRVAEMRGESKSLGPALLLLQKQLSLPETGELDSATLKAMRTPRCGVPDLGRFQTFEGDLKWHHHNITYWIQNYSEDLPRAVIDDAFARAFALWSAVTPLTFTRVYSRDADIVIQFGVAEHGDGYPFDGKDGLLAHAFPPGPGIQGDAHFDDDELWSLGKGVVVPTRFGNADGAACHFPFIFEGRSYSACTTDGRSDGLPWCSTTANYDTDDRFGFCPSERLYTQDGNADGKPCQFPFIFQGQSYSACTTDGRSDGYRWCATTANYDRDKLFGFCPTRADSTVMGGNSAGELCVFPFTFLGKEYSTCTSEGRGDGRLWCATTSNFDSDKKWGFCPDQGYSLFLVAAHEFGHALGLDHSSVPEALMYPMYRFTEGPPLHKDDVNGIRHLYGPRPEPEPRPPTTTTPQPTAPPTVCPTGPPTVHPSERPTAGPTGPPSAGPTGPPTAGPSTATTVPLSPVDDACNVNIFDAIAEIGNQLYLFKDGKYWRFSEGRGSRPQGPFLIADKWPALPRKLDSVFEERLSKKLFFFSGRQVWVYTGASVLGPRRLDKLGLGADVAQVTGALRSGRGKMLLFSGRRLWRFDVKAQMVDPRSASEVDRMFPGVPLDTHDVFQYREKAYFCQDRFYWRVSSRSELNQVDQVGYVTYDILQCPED

`CC(C)[C@H](C(=O)O)N(CCNC(=O)c1cccc(C(=O)NCCN([C@@H](C(=O)O)C(C)C)S(=O)(=O)c2ccc(-c3ccccc3)cc2)c1)S(=O)(=O)c1ccc(-c2ccccc2)cc1`: the Activity entry in data set [1], in [5] and in data set [8] was “Non-Toxic” throughout. Further, the half-inhibitory concentration (IC50) worked out at 2200 nM in [2], 63 nM in [3], 26 nM in data set [4] and 11800 nM on Interstitial collagenase. Moreover, the inhibition result in data set [6], in data set [7] and in data set [9] was “Active” each time. In addition, the Ratio IC50 in the data set listed under Homo sapiens came out at 450.
For `COc1ccc(S(=O)(=O)N(Cc2cccnc2)[C@@H](C(=O)NO)C(C)C)cc1`, the inhibition result in data set [10], in data set [6] and in [11] was “Active” each time.
As to `CC(C)[C@H](C(=O)NO)N(CCNC(=O)c1cccc(C(=O)NCCN([C@@H](C(=O)NO)C(C)C)S(=O)(=O)c2ccc(-c3ccccc3)cc2)c1)S(=O)(=O)c1ccc(-c2ccccc2)cc1`, the Activity result in data set [1], in data set [5] and in [8] was “Non-Toxic” throughout. Besides, the half-maximal inhibitory concentration (IC50) worked out at 250 nM in data set [2], 10 nM in data set [3], 5.5 nM in [4] and 280 nM on Interstitial collagenase. The inhibition result in [6], in data set [7] and in data set [9] was “Active” each time.
For `CC(C)ON([C@H](CCNC(=O)CCCNC(=O)c1cccc(C(=O)NCCCC(=O)NCC[C@H](C(=O)NO)N(OC(C)C)S(=O)(=O)c2ccc(-c3ccccc3)cc2)c1)C(=O)NO)S(=O)(=O)c1ccc(-c2ccccc2)cc1`, the IC50 in data set [2] is 116 nM; in [3], 20 nM; in data set [4], 38 nM; on Interstitial collagenase, 5200 nM.
As to `CC(C)[C@H](C(=O)O)N(CCNC(=O)c1ccccc1)S(=O)(=O)c1ccc(-c2ccccc2)cc1`, the Activity entry in data set [1], in data set [5] and in data set [8] was “Non-Toxic” throughout. Besides, the IC50 turned out to be 1830 nM in data set [2], 170 nM in [3], 510 nM in data set [4] and 16000 nM at Interstitial collagenase. Moreover, the inhibition result in [7] and in data set [9] was “Active” throughout.
`CC(C)[C@H](C(=O)NO)N(CCNC(=O)c1ccccc1)S(=O)(=O)c1ccc(-c2ccccc2)cc1`: the Activity result in data set [1], in data set [5] and in [8] was “Non-Toxic” in each case. Further, the IC50 worked out at 23 nM in data set [2], 0.16 nM in [3], 2.5 nM in [4] and 13 nM on Interstitial collagenase. Further, the inhibition entry in data set [7] and in data set [9] was “Active” throughout.
Turning to `CC(C)[C@H](C(=O)NO)N(CCNC(=O)c1cccc(C(=O)NCCN([C@@H](C(=O)N(C)C)C(C)C)S(=O)(=O)c2ccc(-c3ccccc3)cc2)c1)S(=O)(=O)c1ccc(-c2ccccc2)cc1`, the IC50 in [2] is 900 nM; in data set [3], 107 nM; in data set [4], 41 nM; at Interstitial collagenase, 1600 nM.
With `CC(C)[C@H](C(=O)O)N(CCNC(=O)c1cccc(C(=O)NCCN([C@@H](C(=O)N(C)C)C(C)C)S(=O)(=O)c2ccc(-c3ccccc3)cc2)c1)S(=O)(=O)c1ccc(-c2ccccc2)cc1`, the IC50 in data set [2] was 850 nM; in data set [3], 110 nM; in data set [4], 34 nM; at Interstitial collagenase, 2050 nM.
